In patent US12285034B2, “Human and non-human animal use of microbial anaplerotic oil” (HELIAE DEVELOPMENT, LLC, priority 2017, dated 2025):
Several values for one entry are separate records, joined by “and”; a condition that tells them apart may be missing. Equal values may be shown once. Read-outs that look alike come from different tables or passages of the source.

Experiments:
mold and bacteria = details: low levels; cited from earlier work
[1] = test system: Aurantiochytrium acetophilum HS399; details: for OCFA / Total Fatty Acids: 73 h, 10 L fermenter
Description: […] In this implementation, the pH can be maintained at 7±1 in respective treatments.
In one implementation, fermenters may be used to culture A. acetophilum HS399. […] In this implementation, two treatments using different cyanocobalamin concentrations (0.00185, 0 μM) are compared in duplicates.

[2] = test system: Aurantiochytrium acetophilum HS399; test: Propionic acid toxicity lethal threshold (Example 8); format: cell-based; details: for lethal threshold, Propionate Treatment (initial propionate): initial propionate approach, chronic, metric CDW, pH 6.4
[3] = test system: Aurantiochytrium acetophilum HS399; format: cell-based
Text: In another implementation, a New Brunswick 10 L Bioflo Pro 300 fermenter (Eppendorf) can be used to provide an improvement in the productivity of OCFAs accumulation, previously identified in flasks and bubble columns. In this implementation, a bioprocess can be devised to incorporate one or more portions of one or more techniques described herein. […] As an example, in this implementation, the pH-auxostat is operated at a pH set point of 6.5 to mitigate propionic toxicity. […] A control treatment can be provided […] propionate, to be used as comparison. […] The fermenters are aerated at 0.5 vvm and are maintained at 27° C. under axenic conditions. […] This medium can also contain a trace element solution (25 ml/L) and vitamin solution (5 ml/L). The trace element solution contains (g/L): […] In this example, the fermenter is fed another 5-6 L of a medium containing (g/L): ammonium phosphate (2.5), ammonium hydroxide (29% pure) (15.2), corn syrup DE95 (1143). This medium can also contain a trace element solution (25 ml/L) and a vitamin solution (5 ml/L). In this example, this medium is fed in a DO-stat mode in response to dissolved oxygen values detected above 15% saturation. […] The pH is maintained at 5.8 using NaOH, while the batch ammonia is consumed. The pH can drift to higher values when the residual ammonia is substantially exhausted from the fermenter. […] Culture materials and media can be autoclaved (e.g., 121° C., 15 min) while separating the nitrogen and the carbon source. Foam can be controlled (e.g., automatically) through the addition of (<1 ml/L) Hodag antifoam. […] Residual glucose can be analyzed from culture supernatant (e.g., 5000 g; 5 min) using a colorimetric method based on glucose […] activity. Residual acetate and propionate can be analyzed by HPLC using an acceptable external standard.

[4] = test system: Aurantiochytrium acetophilum HS399; test: Model of intracellular (cytosolic) propionate, Henderson-Hasselbalch (Example 4)
Text: In one implementation, the change in pH may be calculated with the following equation derived from the Henderson and Hasselbalch equation: […]

[5] = test system: Aurantiochytrium acetophilum HS399; format: cell-based; remark: listed apart in the source
Description: In this implementation, initially (24 h incubation), the culture pH may not be controlled, and the pH of the respective treatments can drift from 7.5 to 8. After 24 h incubation, the desired pH set point of each treatment can be set using the respective organic acids. […] The cultures are aerated at 1.4 vvm and maintained at 27° C. under axenic conditions. […] This medium also contains a trace element solution (5 ml/L) and a vitamin solution (1 ml/L). The trace element solution can contain (g/L): […] […] Residual glucose is analyzed from culture supernatant (5000 g; 5 min) using a colorimetric method based on glucose […] activity. Residual acetate and propionate are analyzed by HPLC using external standard.

CCC(=O)O [Propionate, propionic acid]
level inhibiting growth of mold and bacteria (mold and bacteria): < 1 % by weight
less propionic acid consumed without cyanocobalamin ([1]; 10 L fermenters, pH-auxostat, 0 μM vs with cyanocobalamin): 30%
OCFA ([1]; cyanocobalamin 0 μM): 52.0 % TFA
Total Fatty Acids ([1]; cyanocobalamin 0 μM): 56.9 % DW
OCFA ([1]; cyanocobalamin 0.37 μM): 52.6 ± 0.5 % TFA
Total Fatty Acids ([1]; cyanocobalamin 0.37 μM): 54.7 ± 0.5 % DW
Propionate deposition ([1]; cyanocobalamin 0 μM): 65.7%
gpropionate/gbiomass ([1]; cyanocobalamin 0 μM): 0.14
Propionate deposition ([1]; cyanocobalamin 0.37 μM): 49.9%
gpropionate/gbiomass ([1]; cyanocobalamin 0.37 μM): 0.18 ± 0.01
time in which initial propionate is consumed ([1]; initial 3 g/L, pH 7±1, flask): ≤ 72 h
lethal threshold, Propionate Treatment (initial propionate) ([2]; listed as Propionic acid): 20 g/L
lethal threshold, Propionate Treatment (initial propionate) ([2]; listed as propionate): 20 g/L and 30 g/L
lethal threshold, Propionate Treatment ([2]; pH drift approach, acute, metric OUR, pH 5.3): 2.3 ± 0.1 g/L
pH at which oxygen uptake rate dropped (tolerance limit) ([2]; residual propionate 2.3-2.4 g/L, pH ramp 7 to 4): 5.3
effect on growth [3]: slightly inhibited
OCFAs ([3]; propionic acid titration): 60 % TFA
accumulated lipids ([3]; propionic acid titration): 70 % DW
average cumulative productivities ([3]; propionic acid titration): approximately 30 g/L/d
productivity of OCFAs ([3]; propionic acid titration): 10 g/L/day
Cell dry weight ([3]; propionic acid titration, 10 L fermenter): 170 g/L
consumption of propionic per gram of biomass ([3]; total consumed during process): 0.155 g
intracellular propionate concentration ([4]; from 1 g/L, pH 7 (growth inhibitory)): 1 g/L
intracellular propionate concentration ([4]; from ~15 g/L residual, pH 6 (lethal)): 176 g/L
lethal threshold, Cytosolic Propionate ([4]; initial propionate 20 g/L, pH 6.4): 97.7 g/L
D1-D4 Average Internal Propionic Acid (Theoretical Values) ([4]; pH 5 set point): 56.70 g/L
D1-D4 Average Internal Propionic Acid (Theoretical Values) ([4]; pH 6 set point): 4.18 g/L
D1-D4 Average Internal Propionic Acid (Theoretical Values) ([4]; pH 7 set point): 0.13 g/L
lethal threshold, Cytosolic Propionate ([4]; pH drift approach, pH 5.3, 2.3 g/L, listed as Propionic acid): 107.5 ± 3.5 g/L
lethal threshold, Cytosolic Propionate ([4]; pH drift approach, pH 5.3, 2.3 g/L, listed as propionate): 107.5 g/L
effect on growth (cell dry weight, glucose) [5]: highly growth inhibitory
Consumed propionate ([5]; pH 5 set point): 2.3 ± 0.2 g/L
Propionic Acid Deposited ([5]; pH 5 set point): 30.9 ± 2.0%
Consumed propionate ([5]; pH 6 set point): 2.4 ± 0.1 g/L
Propionic Acid Deposited ([5]; pH 6 set point): 40.3 ± 1.6%
effect on growth (cell dry weight) ([5]; pH 7): not growth inhibitory
Consumed propionate ([5]; pH 7 set point): 1.0 ± 0.1 g/L
Propionic Acid Deposited ([5]; pH 7 set point): 24.7 ± 1.0%
Total Fatty Acid ([5]; propionic acid titrant, pH 5): 59.2 ± 3.1 % CDW
Total Lipids ([5]; propionic acid titrant, pH 5): 75.0 ± 3.0 % CDW
Total Fatty Acid ([5]; propionic acid titrant, pH 6): 63.4 ± 0.3 % CDW
Total Lipids ([5]; propionic acid titrant, pH 6): 79.5 ± 1.5 % CDW
OCFA ([5]; propionic acid titrant, pH 7): 6.3 % TFA
Total Fatty Acid ([5]; propionic acid titrant, pH 7): 70.3 ± 2.8 % CDW
Total Lipids ([5]; propionic acid titrant, pH 7): 87.5 ± 1.5 % CDW
